Patent US11649222B2, “Compounds” (UNIVERSITETET I OSLO, priority 2016, dated 2023)
pEC50, pIC50: −log10 of the molar value. Counter-ions that a name gives are not always drawn. Like-named read-outs stand apart in the source and are kept apart here. Marks after values point to notes of the source that are not given here.

Experiments:
Type in all cases: cell-based
[1] = test system: resistant gram-negative MBL-based bacteria; assay: MICx: adjuvant concentration giving carbapenem MIC ≤ 2 mg/L
Protocol: (§1) • Plate bacterial strain(s) on appropriate media: • Gram-negative bacteria with ESBLs or carbapenemases: green agar plates with 100 mg/L ampicillin • Gram-negative bacteria without β-lactamases: green agar plates • Gram-positive bacteria (Staphylococci and Enterococci): blood agar plates • Incubate o.n. at 37° C. […] (Should be used within 15 min of preparation). • Dilute the 0.5 McFarland suspension 1:100 into MH broth. […] Plate 10 μl of the dilution on MH agar plates (×2). Incubate o.n. at 37° C., count the colonies and calculate the final CFU/ml inoculum in the plate by multiplying the average number of colonies with 10000 and divide by 2. The final inoculum should be between 3-7×10^5 CFU/ml. • Add 50 μl of the prepared bacterial suspension to each well in the microtiter plate except negative growth control. Preparation of Compounds/Antibiotics • Calculate the desired concentration-range and volume of the compounds/antibiotics in the assay. […] Dilute the stock solution in MH broth. Make subsequent 2-fold dilutions in MH broth of the desired concentrations if a concentration range is to be tested (remember the extra dilution factor in the assay plate). Always include extra volume for pipetting. Take into consideration stock solutions that are made in buffers that have an effect on bacterial growth (e.g. DMSO).

[2] = test system: human hepG2 cells; assay: In vitro toxicity in human hepG2 cells (AlamarBlue viability)
Protocol: For viability assays, cells were seeded in white 96-well Nunclon plates at a density of 20,000 cells/well and left overnight to adhere before experiments were conducted. Zn chelators dissolved in DMSO were added to white 96-well plates containing 20000 HepG2 cells/well at concentrations ranging from 1 to 1×10^−6 mM (max DMSO concentration never exceeded 1%) and incubated for 24 hours at 37° C. After 24 hours, AlamarBlue® cell viability reagent (Thermo Fisher, Carlsbad, USA) was added (10% final concentration) and incubated for 4 hours at 37° C.

[3] = test system: K. pneumoniae K66-45 (NDM-1); assay: Microbroth dilution MIC of carbapenem with/without inhibitor; conditions: K. pneumoniae K66-45 NDM-1; for Meropenem activity in presence of inhibitor: inhibitor 63 mg/L
Protocol: as §1

[4] = test system: P. aeruginosa K34-7 (VIM-2); assay: as above; conditions: for Meropenem activity in presence of inhibitor: inhibitor 63 mg/L
Protocol: as §1

[5] = test system: K. pneumoniae 50732159 (No MBL); assay: Microbroth dilution MIC of meropenem with/without inhibitor; conditions: inhibitor 25 mg/L
Protocol: as §1

[6] = test system: P. aeruginosa 50808021 (No MBL); assay: as above; conditions: inhibitor 25 mg/L
Protocol: as §1

[7] = Homo sapiens, HepG2, read-out: IC50h
[8] = lowest concentration of compound X that results in a MIC value of ≤ 2 mg/L for carbapenem antibiotics
[9] = human hepG2 cells, 24 hours, AlamarBlue, 8 replicates, read-out: IC50
[10] = human hepG2 cells, read-out: IC50h
[11] = Homo sapiens, HepG2, estimated values (footnote c), read-out: IC50h

SMILES | MICx [1, 8] | pIC50 [2, 9] | pIC50 [2, 10] | also measured
O=C(O)CN1CCN(CC(=O)O)CCN([C@H](CO)[C@H](O)CO)CCN(CC(=O)O)CC1 [Butrol, reference compound] |  |  |  | MICx ([1]; estimated values (footnote c)): 15^c μM; pIC50 ([2]; estimated values (footnote c), read-out: IC50h): 4.22
CCOCCOCCOCCN(CCN(Cc1ccccn1)Cc1ccccn1)Cc1ccccn1 [Example 9, N1-(2-(2-(2-ethoxyethoxy)ethoxy)ethyl)-N1,N2,N2-tris(pyridin-2-ylmethyl)ethane-1,2-diamine] |  |  |  | Meropenem activity in presence of inhibitor [3]: ≤0.5 mg/L; Meropenem activity in presence of inhibitor [4]: ≤0.5 mg/L
COC(=O)c1ccc(CN(Cc2ccccn2)Cc2ccccn2)nc1 [Example 12, methyl 6-((bis(pyridin-2-ylmethyl)amino)methyl)nicotinate] |  |  |  | MICx [1]: 31 µM; pIC50 ([2]; Homo sapiens, HepG2, 24 h): 4.78; pIC50 [2, 7]: 4.78
OCc1ccc(CN(Cc2ccccn2)Cc2ccccn2)nc1 [Example 14, (6-((bis(pyridin-2-ylmethyl)amino)methyl)pyridin-3-yl) methanol] | 31 µM | 4.91 | 4.91 | 
CC(=O)OC[C@H]1OC(OC(C)=O)[C@H](NC(=O)Cc2ccc(NC(=O)CN(CCN(Cc3ccccn3)Cc3ccccn3)Cc3ccccn3)cc2)[C@@H](OC(C)=O)[C@@H]1OC(C)=O (stereo partly drawn) [Example 22a, (3R,4R,5S,6R)-6-(acetoxymethyl)-3-(2-(4-(2-((2-(bis(pyridin-2-ylmethyl)amino)ethyl)(pyridin-2-ylmethyl)amino)acetamido)phenyl)acetamido) tetrahydro-2H-pyran-2,4,5-triyltriacetate] |  |  |  | Meropenem activity in presence of inhibitor [3]: 0.25 mg/L; Meropenem activity in presence of inhibitor [4]: 1 mg/L
O=C(CN(CCN(Cc1ccccn1)Cc1ccccn1)Cc1ccccn1)Nc1ccc(CC(=O)NC(CO)(CO)CO)cc1 [Example 24, 2-((2-(bis(pyridin-2-ylmethyl)amino)ethyl)(pyridin-2-ylmethyl)amino)-N-(4-(2-(1,3-dihydroxy-2-(hydroxymethyl)propan-2-ylamino)-2-oxoethyl)phenyl)acetamide] | 31 µM |  | 4.22 | 
O=C(CN(CCN(Cc1ccccn1)Cc1ccccn1)Cc1ccccn1)Nc1ccc(CCNC(=O)c2cnccn2)cc1 [Example 27, N-(4-(2-((2-(bis(pyridin-2-ylmethyl)amino)ethyl)(pyridin-2-ylmethyl)amino)acetamido)phenethyl)pyrazine-2-carboxamide] |  |  |  | Meropenem activity in presence of inhibitor [3]: 0.125 mg/L; Meropenem activity in presence of inhibitor [4]: 1 mg/L
OC[C@H]1OC(O)[C@H](n2cc(CN(Cc3ccccn3)Cc3ccccn3)nn2)[C@@H](O)[C@@H]1O (stereo partly drawn) [Example 84, (3R,4R,5S,6R)-3-(4-((bis(pyridin-2-ylmethyl)amino)methyl)-1H-1,2,3-triazol-1-yl)-6-(hydroxymethyl)tetrahydro-2H-pyran-2,4,5-triol] | 125 µM | < 3.00 | 3.94 | 
OC1O[C@H](Cn2cc(CN(CCN(Cc3ccccn3)Cc3ccccn3)Cc3ccccn3)nn2)[C@H](O)[C@H](O)[C@H]1O (stereo partly shown) [Example 91] | 31 µM | 3.78 | 3.78 | 
CN(C[C@H](O)[C@@H](O)[C@H](O)[C@H](O)CO)C(=O)Cc1ccc(-n2cc(CN(Cc3ccccn3)Cc3ccccn3)nn2)cc1 [Example 96, 2-(4-(4-((bis(pyridin-2-ylmethyl)amino)methyl)-1H-1,2,3-triazol-1-yl)phenyl)-N-methyl-N-((2S,3R,4R,5R)-2,3,4,5,6-pentahydroxyhexyl)acetamide] | 125 µM | < 3.00 | ≤ 3.93 | 
O=C(NC[C@@H](O)CO)c1ccc(CN(Cc2ccccn2)Cc2ccccn2)nc1 [Example 97, (R)-6-((bis(pyridin-2-ylmethyl)amino)methyl)-N-(2,3-dihydroxypropyl)nicotinamide] |  | 3.88 |  | 
O=C(Cc1ccc(-n2cc(CN(Cc3ccccn3)Cc3ccccn3)nn2)cc1)NC(CO)(CO)CO [Example 98, 2-(4-(4-((bis(pyridin-2-ylmethyl)amino)methyl)-1H-1,2,3-triazol-1-yl)phenyl)-N-(1,3-dihydroxy-2-(hydroxymethyl)propan-2-yl)acetamide] | 125 µM | 3.59 | 3.59 | 
CN(C[C@H](O)[C@@H](O)[C@H](O)[C@H](O)CO)C(=O)Cc1ccc(NC(=O)c2ccc(CN(Cc3ccccn3)Cc3ccccn3)nc2)cc1 [Example 99, 6-((bis(pyridin-2-ylmethyl)amino)methyl)-N-(4-(2-(methyl((2S,3R,4R,5R)-2,3,4,5,6-pentahydroxyhexyl)amino)-2-oxoethyl)phenyl)nicotinamide] | 31 µM | 3.66 | 3.66 | Meropenem activity in presence of inhibitor [5]: 32 mg/L; Meropenem activity in presence of inhibitor [6]: >64 mg/L
O=C(NCCc1ccc(-n2cc(CN(Cc3ccccn3)Cc3ccccn3)nn2)cc1)[C@H]1O[C@H](O)[C@H](O)[C@@H](O)[C@H]1O [Example 101, (2S,3R,4S,5R,6S)—N-(4-(4-((Bis(pyridin-2-ylmethyl)amino)methyl)-1H-1,2,3-triazol-1-yl)phenethyl)-3,4,5,6-tetrahydroxytetrahydro-2H-pyran-2-carboxamide] |  | ~3.66 |  | 
O=C(NC(CO)(CO)CO)c1ccc(CN(Cc2ccccn2)Cc2ccccn2)nc1 [Example 103, 6-((bis(pyridin-2-ylmethyl)amino)methyl)-N-(1,3-dihydroxy-2-(hydroxymethyl)propan-2-yl)nicotinamide] | 31 µM | 4.17 | 4.17 | 
O=C(Cc1ccc(-n2cc(CN(Cc3ccccn3)Cc3ccccn3)nn2)cc1)NC[C@H](O)CO [Example 104, (S)-2-(4-(4-((bis(pyridin-2-ylmethyl)amino)methyl)-1H-1,2,3-triazol-1-yl)phenyl)-N-(2,3-dihydroxypropyl)acetamide] |  | 3.65 |  | 
O=C(c1ccc(CN(Cc2ccccn2)Cc2ccccn2)nc1)N1CCNCC1 [Example 105, (6-((bis(pyridin-2-ylmethyl)amino)methyl)pyridin-3-yl)(piperazin-1-yl)methanone] | 31 µM | ~3.68 |  | pIC50 [2, 11]: 4.00
O=C(CNCCc1ccc(NC(=O)CN(CCN(Cc2ccccn2)Cc2ccccn2)Cc2ccccn2)cc1)NCC(O)CO (stereo not shown) [Example 108] |  | < 3.00 |  | 
O=C(O)CNC(=O)CNC(=O)c1ccc(CN(Cc2ccccn2)Cc2ccccn2)nc1 [Example 109] |  | 3.89 |  | 
NCc1ccc(CN(Cc2ccccn2)Cc2ccccn2)nc1 [Example 147, 1-(5-(aminomethyl)pyridin-2-yl)-N,N-bis(pyridin-2-ylmethyl) methanamine hydrochloride] |  |  |  | pIC50 ([2]; Homo sapiens, HepG2, 24 h): ~5.00
O=C(O)C[C@@H]1CC[C@H](NC(=O)c2ccc(CN(Cc3ccccn3)Cc3ccccn3)nc2)B(O)O1 [Example 163, 2-((3R,6S)-3-(6-((Bis(pyridin-2-ylmethyl)amino)methyl)nicotinamido)-2-hydroxy-1,2-oxaborinan-6-yl)acetic acid] |  |  |  | pIC50 [2, 11]: 4.00
COC(=O)c1ccc(CN(Cc2ccccc2)Cc2ccccn2)nc1 [Example 186, methyl 6-((benzyl(pyridin-2-ylmethyl)amino)methyl)nicotinate] |  | ~3.67 |  | 
c1ccc(CN(Cc2ccccn2)Cc2ccccn2)nc1 [TPA, N,N,N-tris(2-pyridylmethyl) amine, reference compound] |  |  |  | pEC50 ([2]; Homo sapiens, HepG2): 5.00
CN[C@H](CC(C)C)C(=O)N[C@H]1C(=O)N[C@@H](CC(N)=O)C(=O)N[C@H]2C(=O)N[C@H]3C(=O)N[C@H](C(=O)N[C@H](C(=O)O)c4cc(O)cc(O)c4-c4cc3ccc4O)[C@H](O)c3ccc(c(Cl)c3)Oc3cc2cc(c3O[C@@H]2O[C@H](CO)[C@@H](O)[C@H](O)[C@H]2O[C@H]2C[C@](C)(N)[C@H](O)[C@H](C)O2)Oc2ccc(cc2Cl)[C@H]1O [Vancomycin, reference compound] |  |  |  | MICx [1]: > 1000^d μM; pIC50 [2, 7]: 4.70
C[C@@H](O)[C@H]1C(=O)N2C(C(=O)O)=C(S[C@@H]3CN[C@H](CNS(N)(=O)=O)C3)[C@H](C)[C@H]12 [doripenem, reference compound] |  |  |  | MIC ([3]; Klebsiella pneumoniae, read-out: MIC of doripenem alone): > 64 µg/mL; MIC ([4]; Pseudomonas aeruginosa, read-out: MIC of doripenem alone): 64 µg/mL
